The values below come from patent US11591342B2, “Heterocyclic compound, application thereof and pharmaceutical composition comprising same” (SUZHOU SINOVENT PHARMACEUTICALS CO., LTD., priority 2018, dated 2023).

The target of one data set is CYP3A4 (Homo sapiens (Human), UniProt P08684). The data set is described as follows: Time-dependent inhibition of CYP3A4 (TDI assay, human liver microsomes). The format is in vitro ADME. Conditions: for CYP3A4 TDI % @ 10 μM: human liver microsomes, Midazolam substrate, 30 min with NADPH vs 0 min; for time-dependent inhibition on CYP3A4 (conclusion): conclusion drawn from Table 3, 10 μM. The procedure: Effect Example 3. Time-Dependent Inhibition of CYP3A4
1. Preheating potassium phosphate buffer (K-buffer), pH 7.4: 100 mM potassium phosphate buffer (K-buffer) was prepared by mixing 9.5 mL of solution A with 40.5 mL of solution B, diluting to 500 mL with ultrapure water, and then adjusting to pH 7.4 with KOH or H3PO4, wherein the solution A (1M potassium dihydrogenphosphate) was prepared by dissolving 136.5 g of potassium dihydrogenphosphate in […] of ultrapure water.
2. Preparation of human liver microsome suspension (1.3 mg/mL, 1.3×, stock: 20 mg/mL): 100 μL of human liver microsome suspension (20 mg/mL) was added into […] of K-buffer.
3. Preparation of NADPH solution (4.167 mg/mL, 5 mM): 8.3 mg of NADPH was added into 2 mL of buffer.
4. Preparation of substrate solution (1.5× final): 1.5 μL of 10 mM Midazolam was added to 998.5 μL of K-buffer to yield the substrate mixture.
5. Preparation of 100× test compound, reference and blank control solutions: 3 μL of 10 mM stock solution of test compound was added to 27 μL of ACN; 3 μL of positive control stock solution was added to 27 μL of ACN; and 3 μL of DMSO was added to 27 μL of ACN to serve as blank control.
6. Primary preheating system: An NADPH-free system for 0 min incubation: 78 μL of 1.3× human liver microsome solution (step 2) was mixed with 1 μL of the 100× stock solutions of positive control, test compound, or blank control (step 5); A system containing NADPH for 30 min incubation: 78 μL of 1.3× human liver microsome solution (step 2) was mixed with 1 μL of the 100× stock solutions of positive control, test compound, or blank control (step 5).
7. Secondary preheating system: 150 μL of the substrate solution prepared in step 4 was added into a deep well plate together with the NADPH solution from step 3
8. The samples were preheated for 10 min in a 37° C. water bath.
9. Reaction procedure: (1) reaction for 0 min: 21 μL of K-buffer was added to the primary preheating system and mixed well without incubation; 20 μL of the mixture was immediately transferred into the plate of the secondary preheating system; after mixing, the secondary system was incubated in a 37° C. water bath for 15 min, and 60 μL of the reaction mixture was added into 120 μL of acetonitrile containing internal standard to terminate the reaction; and (2) reaction for 30 min: 21 μL of NADPH was added into the primary preheating system for a 30-min incubation after mixing; 20 μL of the mixture was added into the secondary preheating system prior to mixing; the mixture was incubated in a 37° C. water bath for 15 min, and 60 μL of the reaction mixture was added into 120 μL of acetonitrile containing internal standard to terminate the reaction.
10. After termination, the samples were shaken on a shaker at 600 rpm for 10 min and centrifuged at 5594 g for 15 min prior to LC-MS/MS analysis.

The target in a further data set is Autotaxin (ATX) (Homo sapiens (Human), UniProt Q13822). As to the kind of experiment: ATX bioactivity assay (Amplex Red / choline oxidase / HRP fluorescence, LPC 16:0 substrate). The format is biochemical. Conditions: 30 min room temperature. As for the experimental part:
Effect Example 1 Bioactivity Assay
Preparation and Treatment
Stock Solution Preparation
A 10 mM DMSO stock solution was formulated for each compound. A 30 mM DMSO stock solution was formulated for positive control HA130.
The DMSO stock solutions were stored at room temperature in a desiccator for a short period of time or at −20° C. for a long period of time.
All compounds were serially 3-fold diluted in DMSO from 10 μM to the 10th concentration.
A 1000× positive control (10 mM, HA130) and a 1000× negative control (100% DMSO) were prepared.
The plates were shaken for 5 min.
Preparation of 1× Reaction Buffer:
5× reaction buffer and cold water were mixed well in a volume ratio of 1:4.
Preparation of 20 U/mL Choline Oxidase Stock Solution:
1 tube of choline oxide in a kit was dissolved in 1× reaction buffer. The aliquots were frozen at −20° C.
Preparation of 200 U/mL Horseradish Peroxidase (HRP) Stock Solution:
1 tube of HRP in a kit was dissolved in 1 mL of 1× reaction buffer. The aliquots were frozen at −20° C.
Preparation of 20 mM Amplex® Red Reagent (for Detection) Stock Solution
Amplex Red reagent and DMSO were equilibrated at room temperature. 1 tube of Amplex Red reagent in a kit was dissolved in 200 μL of DMSO.
a) 2×ATX ([…]), 2×HRP ([…]), 2× choline oxidase (0.2 U/mL) were added to 1× reaction buffer.
b) 20 μL of the reaction mixture was added to the plate (PE, 6007270) (refer to step a).
c) 40 nL of diluent was added to the plate using Echo (refer to “Preparation”).
d) 2×LPC (16:0) (60 mM) and 2× Amplex® Red ([…]) were prepared using 1× reaction buffer.
e) 20 μL of the mixture was added to the plate (refer to step d).
f) The plate was shaken for 30 s and allowed to stand at room temperature for 30 min.
g) The plate was examined using Envision, and the procedure was as follows: Excitation at 530 nm; and Emission at 590 nm.
Formula for Calculating % Inhibition (Percent Inhibition Rate) as Follows:
FLU: Fluorescence (fluorescence reading)
FLUpositive: Average fluorescence value in positive control wells (10 μM HA130) in the plate.
FLUvehicle: Average fluorescence value in negative control wells (0.1% DMSO) in the plate.
Calculation of IC50 and Dose-Response Curve:
IC50 of the compounds was calculated via a non-linear regression line (dose-variable slope) fitted using % inhibition and log of compound concentration. The software used was Graphpad 5.0. Y=Bottom+(Top−Bottom)/(1+10^((Log IC50−X)×Hill Slope))
X: log of inhibitor concentration

For another data set, the system named is LPA18:2 in mouse plasma. The data set is described as follows: Inhibition of LPA in mouse plasma (plasma LPA18:2 assay, LC-MS/MS). Conditions: fresh CD1 mouse plasma, LPA18:2, 37° C. for 120 min. The format is biochemical, CD1 mice. The procedure: Effect Example 2. Inhibition of LPA in Mouse Plasma by Compounds
20 mM stock solutions of the compounds were prepared with DMSO and then diluted to 1 mM, which was subjected to a serial 3-fold dilution to yield 10 working solutions.
Collection of Fresh Mouse Plasma:
CD1 mice were euthanized by CO2 inhalation. Approximately 1 mL of whole blood was taken by cardiac puncture, with EDTA-K2 for anticoagulation. The blood was centrifuged at 3220 g for 10 min at 4° C. for plasma collection.
Reactions were performed in a 96-well plate, and the samples were tested in duplicate. 1 μL of each working solution was added to 100 μL of plasma, with the final concentrations of […]. 1 μL of DMSO was added to plasma to serve as blank. The samples were incubated in a water bath at 37° C. for 120 min, and 600 μL of 10 μM tolbutamide in methanol was added to terminate the reaction. Tolbutamide also served as an internal standard. After 5 min of vortex mixing, the samples were centrifuged at 3220 g for 45 min at 4° C. to precipitate the protein. 100 μL of the supernatant was transferred to a new plate, diluted with water based on LC-MS response and peak shapes, mixed well and analyzed by LC-MS/MS.
LPA18:2 was quantified using peak area ratio (LPA18:2/internal standard), requiring no standard curve. For test compounds of different concentrations, LPA data was represented by a percentage decrease of LPA: 100-[((LPA peak area ratio of compound)/(LPA peak area ratio of control))×100]. IC50 was calculated using Graphpad Prism 6.0 software.

Chain of CYP3A4 (P08684 whole entry): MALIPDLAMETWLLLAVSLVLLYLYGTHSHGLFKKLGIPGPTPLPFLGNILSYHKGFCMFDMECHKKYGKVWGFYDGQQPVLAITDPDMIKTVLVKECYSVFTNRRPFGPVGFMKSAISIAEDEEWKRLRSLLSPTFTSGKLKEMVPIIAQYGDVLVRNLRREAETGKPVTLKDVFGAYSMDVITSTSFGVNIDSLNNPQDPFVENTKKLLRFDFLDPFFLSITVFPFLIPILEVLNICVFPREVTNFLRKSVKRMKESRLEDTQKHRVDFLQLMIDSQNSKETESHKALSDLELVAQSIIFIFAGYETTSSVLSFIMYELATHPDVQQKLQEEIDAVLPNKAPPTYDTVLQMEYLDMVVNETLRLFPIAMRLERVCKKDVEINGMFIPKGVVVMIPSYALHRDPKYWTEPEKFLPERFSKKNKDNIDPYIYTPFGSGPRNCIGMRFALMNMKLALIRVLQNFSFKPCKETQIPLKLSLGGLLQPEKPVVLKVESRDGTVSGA

On to `CCc1oc2ncc(N3CCN(CC(=O)N4CC(O)C4)CC3)cc2c1N(C)c1nc(-c2ccc(F)cc2)c(C#N)s1` [Compound S-0045, 2-((2-ethyl-5-(4-(2-(3-hydroxyazetidin-1-yl)-2-oxoethyl)piperazin-1-yl)furo[2,3-b]pyridin-3-yl)(methyl)amino)-4-(4-fluorophenyl)thiazole-5-carbonitrile], for which, on CYP3A4, the “CYP3A4 TDI % @ 10 μM” value is on record as 2.68% and the “time-dependent inhibition on CYP3A4 (conclusion)” value (“time-dependent inhibition” below) is recorded as “no time-dependent inhibition on CYP3A4”. The molecule further registered an IC50 against Autotaxin (ATX) of 261 nM.
On to `CCN(c1nc(-c2ccc(F)cc2)c(C#N)s1)c1c2cc(N3CCN(CC(=O)N4CC(O)C4)[C@@H](C(F)(F)F)C3)cc(F)c2nn1CC` [Compound S-0135B, (R)-2-(ethyl (2-ethyl-7-fluoro-5-(4-(2-(3-hydroxyazetidin-1-yl)-2-oxoethyl)-3-(trifluoromethyl)piperazin-1-yl)-2H-indazol-3-yl)amino)-4-(4-fluorophenyl)thiazole-5-carbonitrile], for which the IC50 in the data set on LPA18:2 in mouse plasma was 167 nM.
With `CCN(c1nc(-c2ccc(F)cc2)cs1)c1c2cc(N3CCN(CC(=O)N4CC(O)C4)CC3)cc(F)c2nn1CC` [Compound S-0149, 2-(4-(2-ethyl-3-(ethyl(4-(4-fluorophenyl)thiazol-2-yl)amino)-7-fluoro-2H-indazol-5-yl)piperazin-1-yl)-1-(3-hydroxyazetidin-1-yl)ethanone], the 50% inhibitory concentration (IC50) in the data set on LPA18:2 in mouse plasma stood at 160 nM.
The same measure, in the same setting: the value for `CCN(c1nc(-c2ccc(F)cc2)cs1)c1c2nc(N3CCN(CC(=O)N4CC(O)C4)CC3)cc(C)c2nn1CC` [Compound S-0151, 2-(4-(2-ethyl-3-(ethyl(4-(4-fluorophenyl)thiazol-2-yl)amino)-7-methyl-2H-pyrazolo[4,3-b]pyridin-5-yl)piperazin-1-yl)-1-(3-hydroxyazetidin-1-yl) ethanone] was 1400 nM.
Take `CCc1nc2ncc(N3CCN(CC(=O)N4CC(O)C4)CC3)cn2c1N(CC)c1nc(-c2ccc(F)cc2)c(C#N)s1` [Compound S-0058, 2-(ethyl(2-ethyl-6-(4-(2-(3-hydroxyazetidin-1-yl)-2-oxoethyl)piperazin-1-yl)imidazo[1,2-a]pyrimidin-3-yl)amino)-4-(4-fluorophenyl)thiazole-5-carbonitrile]: the 50% inhibitory concentration (IC50) in the data set with LPA18:2 in mouse plasma worked out at 373 nM; at Autotaxin (ATX) it was 40 nM.
On the same counts, the results for `CCn1nc2c(C)cc(N3CCN(CC(=O)N4CC(O)C4)CC3)nc2c1N(CC(F)F)c1nc(-c2ccc(F)cc2)c(C#N)s1` [Compound S-0141, 2-((2,2-difluoroethyl)(2-ethyl-5-(4-(2-(3-hydroxyazetidin-1-yl)-2-oxoethyl)piperazin-1-yl)-7-methyl-2H-pyrazolo[4,3-b]pyridin-3-yl)amino)-4-(4-fluorophenyl)thiazole-5-carbonitrile] are 153 nM and 43 nM.
On to `CCc1nc2c(C)cc(N3CCN(CC(=O)N4CC(O)C4)CC3)cn2c1N(C)c1nc(-c2ccc(F)cc2)c(C#N)s1` [GLPG1690, reference compound], for which the “CYP3A4 TDI % @ 10 μM” value on CYP3A4 is recorded as 21.57%. In the data set on LPA18:2 in mouse plasma, this molecule displayed an IC50 of 1060 nM.
On to `CCc1oc2cnc(N3CCN(CC(=O)N4CC(O)C4)CC3)cc2c1N(C)c1nc(-c2ccc(F)cc2)c(C#N)s1` [Compound S-0046, 2-((2-ethyl-5-(4-(2-(3-hydroxyazetidin-1-yl)-2-oxoethyl)piperazin-1-yl)furo[2,3-c]pyridin-3-yl)(methyl)amino)-4-(4-fluorophenyl)thiazole-5-carbonitrile], for which, at CYP3A4, the “CYP3A4 TDI % @ 10 μM” value stood at 10.38% and the “time-dependent inhibition” value was “no time-dependent inhibition on CYP3A4”. On Autotaxin (ATX), this molecule had a half-inhibitory concentration (IC50) of more than 10000 nM.
Regarding `CCn1nc2c(F)cc(N3CCN(CC(=O)N4CC(O)C4)CC3)cc2c1N(C)c1nc(-c2ccc(F)c(F)c2)c(C#N)s1` [Compound S-0027, 4-(3,4-difluorophenyl)-2-((2-ethyl-7-fluoro-5-(4-(2-(3-hydroxyazetidin-1-yl)-2-oxoethyl)piperazin-1-yl)-2H-indazol-3-yl)(methyl)amino) thiazole-5-carbonitrile], on CYP3A4, the “CYP3A4 TDI % @ 10 μM” value is reported as 42.12% and the “time-dependent inhibition” value is on record as “weak time-dependent inhibition on CYP3A4”. For the same molecule, the half-inhibitory concentration (IC50) against Autotaxin (ATX) was 165 nM.
On the same counts, the results for `CCc1oc2c(F)cc(N3CCN(CC(=O)N4CC(O)C4)CC3)cc2c1N(C)c1nc(-c2ccc(F)cc2)c(C#N)s1` [Compound S-0024, 2-((2-ethyl-7-fluoro-5-(4-(2-(3-hydroxyazetidin-1-yl)-2-oxoethyl)piperazin-1-yl)benzofuran-3-yl)(methyl)amino)-4-(4-fluorophenyl)thiazole-5-carbonitrile] are 4.8%, “no time-dependent inhibition on CYP3A4” and 188 nM.
